Active and inactive are the calls of the source.
Experiments:
HEK293 [1] = test: inhibition of NOD1-driven NF-kB reporter – cell-based, luminescence, uHTS, primary screen (AID 1578); assay type: functional; conditions: Homo sapiens
[2] = decrease of insulin promoter-GFP reporter – imaging, high-content screening, mouse beta cells (AID 1628); assay type: functional; conditions: MIN6
HEK293 [3] = test: cells; assay type: functional, cell-based; conditions: Homo sapiens
[4] = MIN6 cell viability loss – mouse insulinoma, cytotoxicity control, dose response (AID 2122); assay type: functional;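 also: confirmatory high-throughput counterscreen run to flag cytotoxic compounds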
HEK293 [5] = test: cells; assay type: functional, cell-based; conditions: Homo sapiens; remark: listed apart in the source
HEK293 [6] = test: NOD2 signaling inhibitors in MDP-stimulated cells, cell-based, uHTS, luminescence (AID 2001); assay type: functional; conditions: Homo sapiens
INS1 = test: INS-1E survival protection against cytokine death – cell-based, luminescence, retest, dose response (AID 449756); assay type: functional; conditions: Rattus norvegicus;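 also: cell death triggered by IL-1 beta plus TNF-alpha plus IFN-gamma mixture; protective hits raise ATP signal compared with cytokine alone wells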
[7] = reduction of Shn3 3'UTR-driven luciferase in osteoblasts – cell-based, Clone20 osteoblasts, firefly luciferase, cherry-picked, dose response (AID 624132); assay type: functional;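 also: firefly luciferase luminescence from reporter carrying the Shn3 3'UTR in osteoblasts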
[8] = loss of viability in HepG2 cells – cell-based, CellTiter-Glo, cherry-picked, cytotoxicity control for Shn3 inhibitor project, dose response (AID 624134); assay type: functional
[9] = non-specific 3'UTR reporter inhibition in Clone20-Shn3RL – cell-based, Renilla luciferase, cherry-picked, counter-screen for Shn3 inhibitor project, dose response (AID 624133); assay type: functional
[10] = Shn3 3'UTR reporter signal decrease – cell-based, Clone20 osteoblasts, firefly luciferase, cherry-pick, set 2, Schnurri-3 inhibitor project, dose response (AID 720490); assay type: functional;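 also: actives lower the luminescence signal as inhibitors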
[11] = test system: Streptococcus sp. 'group A'; test: Streptococcus pyogenes SK(-)GAS viability under kanamycin – luminescence, BacTiterGlo, confirmation, counter-screen for streptokinase expression inhibitor project, dose response (AID 1900); assay type: functional, organism-based
Streptokinase A = biological target: T1, Streptokinase A (Streptococcus pyogenes serotype M1, UniProt P10520); test: viability-normalized secreted streptokinase activity reduction – plasminogen activation absorbance, OD405, dose response (AID 1914); assay type: functional, Streptococcus pyogenes M1 GAS;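 also: secreted streptokinase activity via plasminogen activation per viability signal from cell pellet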
T1 sequence (P10520 whole entry): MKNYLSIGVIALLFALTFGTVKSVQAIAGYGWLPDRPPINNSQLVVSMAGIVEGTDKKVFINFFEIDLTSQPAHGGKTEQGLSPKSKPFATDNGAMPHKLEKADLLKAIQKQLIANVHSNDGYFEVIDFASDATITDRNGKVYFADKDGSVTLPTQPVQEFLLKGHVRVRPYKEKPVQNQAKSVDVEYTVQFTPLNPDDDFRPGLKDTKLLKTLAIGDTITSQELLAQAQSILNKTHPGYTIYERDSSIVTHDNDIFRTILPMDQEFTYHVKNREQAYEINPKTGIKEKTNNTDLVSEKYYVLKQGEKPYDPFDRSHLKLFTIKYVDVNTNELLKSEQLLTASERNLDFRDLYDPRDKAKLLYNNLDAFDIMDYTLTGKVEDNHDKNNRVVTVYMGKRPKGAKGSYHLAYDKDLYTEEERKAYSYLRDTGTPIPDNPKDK

[12] = microbe, parasite or virus in culture; assay type: functional; conditions: Mycobacterium tuberculosis
[13] = viability of PTEN-deleted HCT116 cells – cell-based, HCT116 PTEN knockout, dose response (AID 1047); assay type: functional;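 also: HCT116 colon tumor cells with PTEN knocked out; cells exposed to compound for 60 hours before readout; potency for loss of cell viability measured by luminescence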
[14] = viability of HCT116 lacking mutant beta-catenin – cell-based, human colon tumor, dose response (AID 1045); assay type: functional;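 also: HCT116 colon tumor cells with beta catenin knocked out; cells exposed to compound for 60 hours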
Streptococcus = test: GAS UMAA2166 growth inhibition – luminescence, BacTiterGlo, counter-screen for streptokinase expression inhibitor project, dose response (AID 1915); assay type: functional, organism-based;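 also: potency for reduction of bacterial viability or growth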
[15] = biological target: Disintegrin and metalloproteinase domain-containing protein 17 (Homo sapiens, UniProt P78536); test: inhibition of ADAM17 substrate cleavage – biochemical, quenched FRET substrate, counter-screen for ADAM10 exosite inhibitor project, dose response (AID 743253)
Disintegrin and metalloproteinase domain-containing protein 17, sequence (P78536 whole entry, the tested form may be a part): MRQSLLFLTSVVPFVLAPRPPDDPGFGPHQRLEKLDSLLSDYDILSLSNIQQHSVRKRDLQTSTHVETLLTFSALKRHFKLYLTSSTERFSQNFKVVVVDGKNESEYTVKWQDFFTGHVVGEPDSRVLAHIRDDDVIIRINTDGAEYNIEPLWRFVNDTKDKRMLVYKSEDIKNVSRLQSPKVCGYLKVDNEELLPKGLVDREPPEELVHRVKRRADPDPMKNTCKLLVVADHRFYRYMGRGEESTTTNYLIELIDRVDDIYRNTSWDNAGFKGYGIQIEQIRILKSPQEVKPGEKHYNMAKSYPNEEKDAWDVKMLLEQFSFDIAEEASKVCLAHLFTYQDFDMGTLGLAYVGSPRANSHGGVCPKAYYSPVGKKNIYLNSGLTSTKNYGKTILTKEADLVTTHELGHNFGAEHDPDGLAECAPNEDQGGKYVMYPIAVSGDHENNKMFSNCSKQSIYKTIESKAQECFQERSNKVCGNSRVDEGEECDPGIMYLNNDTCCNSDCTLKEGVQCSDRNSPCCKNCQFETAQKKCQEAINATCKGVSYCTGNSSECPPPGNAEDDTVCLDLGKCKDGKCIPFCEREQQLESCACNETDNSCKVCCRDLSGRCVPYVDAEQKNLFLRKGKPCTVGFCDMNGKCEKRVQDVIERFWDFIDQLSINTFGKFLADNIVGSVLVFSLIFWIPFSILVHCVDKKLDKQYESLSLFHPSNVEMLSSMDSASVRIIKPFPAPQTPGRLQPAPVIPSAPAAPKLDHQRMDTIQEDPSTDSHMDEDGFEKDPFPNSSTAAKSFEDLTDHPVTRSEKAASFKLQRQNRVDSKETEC

[16] = ATP-based viability loss in HEK293T cells – cell-based, CellTiter-Glo luminescence, dry powder, set 2, cytotoxicity control, dose response (AID 720595); assay type: functional; conditions: HEK293
[17] = biological target: Glucose-6-phosphate 1-dehydrogenase (Homo sapiens, UniProt P11413); test: inhibition of Homo sapiens G6PD, dose series – biochemical, fluorescence, selectivity assay for P. falciparum G6PD inhibitor project, dose response (AID 504792); assay type: functional
Glucose-6-phosphate 1-dehydrogenase, sequence (P11413 whole entry): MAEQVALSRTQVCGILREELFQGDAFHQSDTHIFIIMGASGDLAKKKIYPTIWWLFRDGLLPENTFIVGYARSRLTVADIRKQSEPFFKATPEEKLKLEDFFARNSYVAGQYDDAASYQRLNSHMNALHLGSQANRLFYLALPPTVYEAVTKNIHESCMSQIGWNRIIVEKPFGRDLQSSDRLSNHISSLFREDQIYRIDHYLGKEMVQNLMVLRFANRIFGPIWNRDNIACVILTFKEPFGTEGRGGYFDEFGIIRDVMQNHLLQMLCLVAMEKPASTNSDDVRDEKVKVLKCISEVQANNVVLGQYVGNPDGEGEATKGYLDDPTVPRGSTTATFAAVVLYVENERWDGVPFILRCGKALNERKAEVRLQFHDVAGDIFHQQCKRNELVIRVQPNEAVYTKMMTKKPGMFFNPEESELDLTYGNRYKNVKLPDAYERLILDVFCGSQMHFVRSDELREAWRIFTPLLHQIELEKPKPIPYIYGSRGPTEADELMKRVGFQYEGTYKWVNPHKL

[18] = Luminescence-based cell-based high throughput dose response assay to identify activators of the DAF-12 from the parasite S. stercoralis (ssDAF-12).; assay type: functional
[19] = biological target: T2, Oxysterols receptor LXR-beta (Homo sapiens, UniProt P55055); test: LXR agonists, Gal4 luciferase reporter, dose response, counter-screen for ssDAF-12 agonist project, cell-based, luminescence, HEK293, S. stercoralis campaign (AID 720737); assay type: functional; conditions: read-out: IC50 (the source's name)
T2 sequence (P55055 whole entry): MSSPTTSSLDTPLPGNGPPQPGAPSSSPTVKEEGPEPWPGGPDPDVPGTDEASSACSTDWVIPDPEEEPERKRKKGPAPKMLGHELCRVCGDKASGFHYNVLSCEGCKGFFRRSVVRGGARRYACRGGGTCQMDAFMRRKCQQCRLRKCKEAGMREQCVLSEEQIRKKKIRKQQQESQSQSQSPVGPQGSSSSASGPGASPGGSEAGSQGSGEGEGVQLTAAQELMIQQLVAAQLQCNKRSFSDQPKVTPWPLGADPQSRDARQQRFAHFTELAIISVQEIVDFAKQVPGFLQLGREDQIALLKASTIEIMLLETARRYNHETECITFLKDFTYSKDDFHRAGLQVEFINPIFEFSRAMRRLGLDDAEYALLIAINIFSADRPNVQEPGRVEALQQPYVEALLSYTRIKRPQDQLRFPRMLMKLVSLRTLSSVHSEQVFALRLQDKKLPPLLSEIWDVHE

[20] = biological target: T2, Oxysterols receptor LXR-beta; assay type: functional, cell-based
[21] = biological target: NAD-dependent protein deacylase sirtuin-5, mitochondrial (Homo sapiens, UniProt Q9NXA8); test: sirtuin-5 deacylation blockers, concentration series – biochemical, fluorescence imaging, cherry-pick, set 5, dose response (AID 720591);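 also: desuccinylation of succinyl peptide AMC substrate read as fluorescence after trypsin release; potency of inhibitors that lower fluorescence and may act on trypsin instead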
NAD-dependent protein deacylase sirtuin-5, mitochondrial, sequence (Q9NXA8 whole entry): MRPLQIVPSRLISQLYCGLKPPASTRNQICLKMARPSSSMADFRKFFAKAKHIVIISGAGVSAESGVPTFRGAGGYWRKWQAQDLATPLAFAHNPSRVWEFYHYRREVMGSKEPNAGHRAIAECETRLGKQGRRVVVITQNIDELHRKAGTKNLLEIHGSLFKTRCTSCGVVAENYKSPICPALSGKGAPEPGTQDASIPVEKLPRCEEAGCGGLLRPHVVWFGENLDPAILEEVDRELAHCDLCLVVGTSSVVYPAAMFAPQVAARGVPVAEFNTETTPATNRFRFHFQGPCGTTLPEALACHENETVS

Paired box protein Pax-8 = Paired box protein Pax-8 (Homo sapiens, UniProt Q06710); test: PAX8 transcriptional activity inhibition in RMG-I – RMG-I cells, luciferase, cherry-pick, dose response (AID 687027); assay type: functional, cell-based;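 also: luciferase reporter driven by Pax8 target thyroperoxidase promoter measured by SteadyGlo luminescence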
Paired box protein Pax-8, sequence (Q06710 whole entry): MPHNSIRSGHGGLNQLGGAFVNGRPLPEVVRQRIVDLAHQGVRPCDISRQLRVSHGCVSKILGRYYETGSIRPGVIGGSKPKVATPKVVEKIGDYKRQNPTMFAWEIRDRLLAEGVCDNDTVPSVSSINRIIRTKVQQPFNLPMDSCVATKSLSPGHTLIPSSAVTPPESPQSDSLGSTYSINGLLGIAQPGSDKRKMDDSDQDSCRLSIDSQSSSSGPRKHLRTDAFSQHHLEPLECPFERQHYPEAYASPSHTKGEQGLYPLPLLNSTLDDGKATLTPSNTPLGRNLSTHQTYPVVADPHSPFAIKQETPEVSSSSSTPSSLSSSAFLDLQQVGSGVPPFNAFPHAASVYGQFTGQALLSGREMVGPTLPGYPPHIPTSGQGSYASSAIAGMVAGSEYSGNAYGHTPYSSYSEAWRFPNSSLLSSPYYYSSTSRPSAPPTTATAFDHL

[22] = A2780 cell killing – plate reader, dry powder samples, cytotoxicity control, dose response (AID 743046); assay type: functional, cell-based
[23] = OVCAR-3 cell viability loss – plate reader, dry powder samples, PAX8 inhibitor project, dose response (AID 743044); assay type: functional, cell-based
[24] = IGROV1 cell killing – plate reader, dry powder samples, PAX8 inhibitor project, dose response (AID 743043); assay type: functional, cell-based; conditions: IGROV-1
[25] = OVCAR8 cell viability loss – plate reader, dry powder samples, PAX8 project, dose response (AID 743197); assay type: functional, cell-based; conditions: OVCAR-8
HEK293 [26] = test: viability loss in HEK293T cells – cell-based, ATP luminescence, cherry-pick samples, cytotoxicity control, dose response (AID 687005); assay type: functional; conditions: Homo sapiens;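 also: cells exposed to compound for 48 hours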
[27] = HEK293 Cytotoxicity Assay Measured in Cell-Based System Using Plate Reader - 7071-01_Inhibitor_Dose_CherryPick_Activity_Set2.; assay type: functional
[28] = viability loss in HEK293 kidney cells – cell-based, cherry-picks, set 5, cytotoxicity control, dose response (AID 1053117); assay type: functional
[29] = blockers of FN fibrillogenesis by fibroblasts – AH1F cells, Alexa488-FN fluorescence, cherry-picks, dose response (AID 1035475); assay type: functional, cell-based
BJ [30] = test: BJ-TERT fibroblast viability loss – cell-based, RAS-independent, luminescence, dose response (AID 1933); assay type: functional; conditions: Homo sapiens
BJ [31] = test: cells; assay type: functional, cell-based; conditions: Homo sapiens
BJ [32] = test: BJ-TERT-LT-ST fibroblast viability loss – cell-based, RAS-independent, luminescence, dose response (AID 1935); assay type: functional; conditions: Homo sapiens;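 also: BJ fibroblasts immortalized with TERT plus LT and ST oncogenes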
[33] = DRD fibroblast viability loss – cell-based, non-viral oncogenic, luminescence, dose response (AID 1934); assay type: functional; conditions: Homo sapiens
[34] = toxicity toward HEK293 cells – cell-based, dry powder samples, cytotoxicity control, dose response (AID 720567); assay type: functional
[35] = viability loss in HEK293T cells – cell-based, CellTiter-Glo luminescence, dry powder, set 6, cytotoxicity control, dose response (AID 651949); assay type: functional; conditions: HEK293
[36] = biological target: T3, Potassium channel subfamily K member 9 (Homo sapiens, UniProt Q9NPC2); test: TASK3 channel blockers, electrophysiology – cell-based, automated electrophysiology, selectivity assay for TASK1 (KCNK3) inhibitor project, SAR follow-up (AID 652210); assay type: functional
T3 sequence (Q9NPC2 whole entry): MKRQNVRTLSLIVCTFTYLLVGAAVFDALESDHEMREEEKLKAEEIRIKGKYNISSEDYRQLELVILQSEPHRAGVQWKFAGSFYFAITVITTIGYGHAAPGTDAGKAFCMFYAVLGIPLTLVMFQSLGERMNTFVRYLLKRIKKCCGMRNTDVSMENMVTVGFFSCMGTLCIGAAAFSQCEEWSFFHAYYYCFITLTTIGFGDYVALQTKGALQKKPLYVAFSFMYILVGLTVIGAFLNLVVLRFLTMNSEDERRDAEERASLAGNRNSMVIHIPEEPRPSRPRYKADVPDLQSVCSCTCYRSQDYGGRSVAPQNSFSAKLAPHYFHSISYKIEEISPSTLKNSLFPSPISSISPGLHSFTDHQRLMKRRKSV

[37] = biological target: T3, Potassium channel subfamily K member 9; test: KCNK9 flux blockade, concentration-response – cell-based, FluxOR thallium flux, selectivity assay for TASK1 inhibitor project, SAR follow-up (AID 652211); assay type: functional;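 also: potency is for inhibitors of the channel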
[38] = biological target: Potassium channel subfamily K member 3 (Rattus norvegicus, UniProt O54912); test: SAR analysis for the identification of selective inhibitors of the two-pore domain potassium channel TASK1(KCNK3):Automated Electrophysiology.; assay type: functional
Potassium channel subfamily K member 3 (Rattus norvegicus, UniProt O54912), sequence (O54912 whole entry, the tested form may be a part): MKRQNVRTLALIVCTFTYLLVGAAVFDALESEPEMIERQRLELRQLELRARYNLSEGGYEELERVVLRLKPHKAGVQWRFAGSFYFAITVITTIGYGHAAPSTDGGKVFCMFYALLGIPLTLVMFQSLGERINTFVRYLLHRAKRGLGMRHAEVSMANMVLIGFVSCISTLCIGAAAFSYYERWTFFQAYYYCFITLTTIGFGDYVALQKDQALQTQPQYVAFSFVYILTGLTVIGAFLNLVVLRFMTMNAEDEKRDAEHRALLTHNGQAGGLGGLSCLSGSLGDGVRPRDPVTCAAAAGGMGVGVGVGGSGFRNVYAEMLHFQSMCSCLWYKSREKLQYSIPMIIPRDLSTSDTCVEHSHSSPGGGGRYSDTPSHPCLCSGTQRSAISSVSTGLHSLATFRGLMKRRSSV

[39] = biological target: Potassium channel subfamily K member 3 (Homo sapiens, UniProt O14649); test: inhibition of human KCNK3 channel flux – CHO cells, FluxOR thallium flux, SAR follow-up (AID 652212); assay type: functional
Potassium channel subfamily K member 3 (Homo sapiens, UniProt O14649), sequence (O14649 whole entry): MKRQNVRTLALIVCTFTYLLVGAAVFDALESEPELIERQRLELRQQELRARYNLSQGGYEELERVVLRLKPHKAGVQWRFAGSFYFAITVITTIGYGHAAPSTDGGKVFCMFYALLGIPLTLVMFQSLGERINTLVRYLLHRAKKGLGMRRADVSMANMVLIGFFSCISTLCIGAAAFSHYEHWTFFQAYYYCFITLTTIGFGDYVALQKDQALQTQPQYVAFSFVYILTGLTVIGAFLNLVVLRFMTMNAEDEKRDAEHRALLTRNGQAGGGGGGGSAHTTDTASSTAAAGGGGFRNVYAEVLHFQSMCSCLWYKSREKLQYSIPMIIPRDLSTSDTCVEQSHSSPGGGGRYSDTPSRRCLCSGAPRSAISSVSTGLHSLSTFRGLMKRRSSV

## O=C(c1cc(COc2ccc3ncccc3c2)on1)N1CCCCCC1
HEK293 [1]
  EC50: 1.85 µM (active)
[2]
  IC50: 1.86 µM (active)
HEK293 [3]
  IC50: 5.76 µM (active)
[4]
  IC50: 1.13 µM (active)
HEK293 [5]
  IC50: > 20 µM (inactive)
HEK293 [6]
  IC50: 13.2 µM (inactive)
INS1
  AC50: 5.88 µM (active)
[7]
  AC50: 0.703 µM (active)
[8]
  AC50: 43.6 µM (active)
[9]
  AC50: 23.4 µM (active)
[10]
  AC50: 3.57 µM (active)

## O=[N+]([O-])c1ccc(-c2nc(-c3cccs3)c(-c3cccs3)[nH]2)cc1
[11]
  EC50: 11.6 µM (active)
Streptokinase A
  EC50: 20.1 µM (active)
[12]
  CC50: 19.5 µM (active)
[13]
  EC50: 17.1 µM (active)
[14]
  EC50: 19 µM (active)
Streptococcus
  EC50: 17.3 µM (active)
[15]
  IC50: > 69.5 µM (inactive)

## CC1CCN(S(=O)(=O)c2ccc(C(=O)Nc3nnc(-c4ccco4)o3)cc2)CC1
[16]
  AC50: > 52 µM (inactive)

## COc1ccc(C(=O)/C=C2\Sc3ccccc3N2C)cc1
[17]
  IC50: > 80 µM (inactive)
[18]
  IC50: > 67.6 µM (inactive)
[19]
  EC50: > 67.6 µM (inactive)

## Cc1csc(NC(=O)c2oc3ccccc3c2C)n1
[20]
  EC50: > 67.6 µM (inactive)
cells
  EC50: > 67.6 µM (inactive)

## COc1ccc(NC(=O)c2cccnc2N2CCCC2)cc1
[21]
  AC50: > 30 µM (inactive)

## O=C1CN(S(=O)(=O)Cc2ccccc2)C[C@@H]2[C@@H](c3ccc(C#CCC4CCCC4)cc3)[C@@H](CO)N12
Paired box protein Pax-8
  AC50: 4.58 µM (active)
[22]
  AC50: 11.3 µM (active)
[23]
  AC50: 4.22 µM (active)
[24]
  AC50: 18.8 µM (active)
[25]
  AC50: 28.1 µM (active)

## COc1ccccc1CNC(=O)C[C@@H]1C[C@H]2c3cc(NC(=O)Nc4ccccc4F)ccc3O[C@H]2[C@@H](CO)O1
HEK293 [26]
  AC50: 26.6 µM (active)
[27]
  AC50: 26.6 µM (active)

## N#Cc1ccc(-c2ccc3c(c2)[C@@H]2[C@@H](CCN2S(=O)(=O)c2cccc(F)c2)[C@H](CO)N3)cc1
[28]
  AC50: > 52 µM (inactive)
[29]
  AC50: 1.18 µM (active)

## C/C(=N\NC(=O)c1c([N+](=O)[O-])c(C)nn1C)c1ccc(NC(=O)C2CCCC2)cc1
BJ [30]
  EC50: 1.02 µM (active)
BJ [31]
  EC50: 0.476 µM (active)
BJ [32]
  EC50: 0.918 µM (inconclusive)
[33]
  EC50: 0.605 µM (active)
[34]
  AC50: 12.8 µM (active)

## COc1ccc(CSc2nnc(-c3ccccc3)o2)cc1
[35]
  AC50: > 52 µM (inactive)

## CCOc1ccccc1NC(=O)c1cccc(NC(=O)c2ccccc2C(F)(F)F)c1
[36]
  IC50: 0.52 µM (active)
[37]
  IC50: 0.32 µM (active)
[38]
  IC50: 0.006 µM (active)
[39]
  IC50: 0.03 µM (active)

From ChEMBL document CHEMBL1201862, “PubChem BioAssay data set” (2004)
